From publication PMC3615554 (Journal of biomolecular screening, 2012)
Where two headings read alike, the source gives them in different places.

How the values were obtained:
[1] = tested on: EGFR activation (granule formation) in A549-EGFRB cells; assay: EGFRB assay, granule count readout; format: cell-based; details: for IC50 / EC50: read-out: IC50 or EC50 (nM) Granule count; for inhibition at 10 µM: read-out: HTS % inhibition at 10 μM Granule count
A549-EGFRB cells = assay: EGFRB assay, nuclei count readout; format: cell-based; details: for HTS % inhibition at 10 μM Nuclei count: pilot screen, 10 μM compound, average of duplicates; for inhibition at 10 µM: read-out: HTS % inhibition at 10 μM Nuclei count
recombinant EGFR kinase = details: read-out: Reported IC50 toward recombinant EGFR kinase; cited from earlier work
VEGFR1 kinase = VEGFR1 kinase (Homo sapiens, UniProt P17948); assay: Luminescence ADP production kinase assay, VEGFR1; details: for Luminescence ADP kinase assay IC50 VEGFR1: 50 nM enzyme, 200 μM ATP, * = partial inhibition
SRC kinase = SRC kinase (Homo sapiens, UniProt P12931); assay: Luminescence ADP production kinase assay, SRC; format: biochemical; details: for Luminescence ADP kinase assay IC50 SRC: 50 nM enzyme, 200 μM ATP, * = partial inhibition
EGFR kinase = EGFR kinase (Homo sapiens, UniProt P00533); assay: Luminescence ADP production kinase assay, EGFR; format: biochemical; details: for Luminescence ADP kinase assay IC50 EGFR: 50 nM enzyme, 200 μM ATP, low limit 10 nM, * = partial inhibition
ABL kinase = ABL kinase (Homo sapiens, UniProt P00519); assay: Luminescence ADP production kinase assay, ABL; format: biochemical; details: for Luminescence ADP kinase assay IC50 ABL: 50 nM enzyme, 200 μM ATP, * = partial inhibition
[2] = tested on: H3255 cells (L858R EGFR mutation); assay: Alamar Blue viability assay, H3255; format: cell-based, human; details: for IC50: Homo sapiens, NCI-H3255, 120 h, read-out: Alamar Blue viability assay IC50 H3255; for Alamar Blue viability assay IC50 H3255: 120 hours incubation, * = partial inhibition
[3] = tested on: A549 cells (wild type EGFR); assay: Alamar Blue viability assay, A549; format: cell-based; details: for IC50: Homo sapiens, A549, 120 h, read-out: Alamar Blue viability assay IC50 A549; for Alamar Blue viability assay IC50 A549: 120 hours incubation, * = partial inhibition
[4] = tested on: H2030 cells (wild type EGFR); assay: Alamar Blue viability assay, H2030; format: cell-based; details: for IC50: Homo sapiens, NCI-H2030, 120 h, read-out: Alamar Blue viability assay IC50 H2030; for Alamar Blue viability assay IC50 H2030: 120 hours incubation, * = partial inhibition
[5] = tested on: HCC4011 cells (L858R EGFR mutation); assay: Alamar Blue viability assay, HCC4011; format: cell-based, human; details: for IC50: Homo sapiens, HCC4011, 120 h, read-out: Alamar Blue viability assay IC50 HCC4011; for Alamar Blue viability assay IC50 HCC4011: 120 hours incubation, * = partial inhibition
[6] = inhibitors, dose response up to 10 μM, ±standard deviation, N.E. = no effect
[7] = inhibitors, dose response up to 10 μM, N.E. = no effect, * = partial inhibition
[8] = activators, dose response up to 10 μM, N.E. = no effect

Chain of EGFR kinase (P00533 25-1210): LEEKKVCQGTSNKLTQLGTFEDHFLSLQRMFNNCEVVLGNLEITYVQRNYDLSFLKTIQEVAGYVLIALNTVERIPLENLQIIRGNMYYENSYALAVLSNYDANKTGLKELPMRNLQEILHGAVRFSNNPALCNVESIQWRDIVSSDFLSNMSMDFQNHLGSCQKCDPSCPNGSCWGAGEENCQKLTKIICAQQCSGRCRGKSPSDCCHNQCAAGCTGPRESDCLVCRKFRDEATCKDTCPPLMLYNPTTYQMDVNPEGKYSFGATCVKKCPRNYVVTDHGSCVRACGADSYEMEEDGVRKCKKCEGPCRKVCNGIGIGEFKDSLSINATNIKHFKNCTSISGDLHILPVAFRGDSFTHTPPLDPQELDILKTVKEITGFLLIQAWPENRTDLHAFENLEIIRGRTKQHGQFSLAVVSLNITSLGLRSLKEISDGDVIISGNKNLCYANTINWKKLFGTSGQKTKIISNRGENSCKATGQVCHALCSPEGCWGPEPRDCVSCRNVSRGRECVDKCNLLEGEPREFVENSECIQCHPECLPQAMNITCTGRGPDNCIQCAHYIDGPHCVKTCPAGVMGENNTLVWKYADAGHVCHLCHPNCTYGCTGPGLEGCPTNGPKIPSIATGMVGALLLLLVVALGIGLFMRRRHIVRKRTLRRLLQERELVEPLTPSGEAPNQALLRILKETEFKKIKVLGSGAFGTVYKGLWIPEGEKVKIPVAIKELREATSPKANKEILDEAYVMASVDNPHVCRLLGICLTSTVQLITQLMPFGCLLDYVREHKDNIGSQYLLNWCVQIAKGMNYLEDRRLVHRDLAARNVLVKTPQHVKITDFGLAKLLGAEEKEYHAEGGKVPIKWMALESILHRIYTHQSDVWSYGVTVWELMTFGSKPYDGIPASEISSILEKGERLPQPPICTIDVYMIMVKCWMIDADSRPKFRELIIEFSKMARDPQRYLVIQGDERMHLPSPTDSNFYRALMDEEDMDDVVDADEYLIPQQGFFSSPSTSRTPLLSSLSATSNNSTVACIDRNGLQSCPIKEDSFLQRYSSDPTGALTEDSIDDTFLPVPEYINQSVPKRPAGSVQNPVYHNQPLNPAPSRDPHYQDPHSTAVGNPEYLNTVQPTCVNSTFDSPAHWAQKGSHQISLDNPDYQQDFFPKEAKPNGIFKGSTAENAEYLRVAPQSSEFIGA
Chain of ABL kinase (P00519 whole entry): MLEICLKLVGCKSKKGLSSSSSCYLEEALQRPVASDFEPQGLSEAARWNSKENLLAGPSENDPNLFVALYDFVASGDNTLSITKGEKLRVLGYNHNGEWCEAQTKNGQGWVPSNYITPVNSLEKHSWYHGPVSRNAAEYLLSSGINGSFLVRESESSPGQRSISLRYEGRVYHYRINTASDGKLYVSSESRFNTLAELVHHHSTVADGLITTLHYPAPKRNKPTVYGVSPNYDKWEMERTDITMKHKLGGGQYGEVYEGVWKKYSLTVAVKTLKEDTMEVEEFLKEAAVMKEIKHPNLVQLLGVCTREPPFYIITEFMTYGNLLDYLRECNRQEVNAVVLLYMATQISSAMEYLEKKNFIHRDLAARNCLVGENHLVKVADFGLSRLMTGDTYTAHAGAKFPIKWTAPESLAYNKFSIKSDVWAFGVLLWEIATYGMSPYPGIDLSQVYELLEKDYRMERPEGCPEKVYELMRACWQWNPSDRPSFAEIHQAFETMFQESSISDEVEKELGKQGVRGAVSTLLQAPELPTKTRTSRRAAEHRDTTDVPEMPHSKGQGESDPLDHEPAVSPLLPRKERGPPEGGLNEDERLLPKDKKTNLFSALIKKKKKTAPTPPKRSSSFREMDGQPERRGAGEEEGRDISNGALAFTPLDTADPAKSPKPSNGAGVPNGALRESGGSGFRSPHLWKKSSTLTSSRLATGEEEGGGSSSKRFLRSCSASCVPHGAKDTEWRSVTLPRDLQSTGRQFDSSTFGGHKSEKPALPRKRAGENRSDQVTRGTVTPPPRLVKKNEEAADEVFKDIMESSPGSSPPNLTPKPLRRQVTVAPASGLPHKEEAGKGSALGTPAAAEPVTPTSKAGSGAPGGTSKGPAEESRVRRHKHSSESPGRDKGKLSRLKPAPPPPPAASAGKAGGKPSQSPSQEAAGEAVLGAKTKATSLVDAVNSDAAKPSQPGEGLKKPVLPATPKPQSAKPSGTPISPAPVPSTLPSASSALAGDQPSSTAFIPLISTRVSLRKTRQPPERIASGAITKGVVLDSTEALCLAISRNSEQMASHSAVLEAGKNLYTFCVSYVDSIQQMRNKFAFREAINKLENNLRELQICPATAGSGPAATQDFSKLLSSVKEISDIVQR
Chain of SRC kinase (P12931 whole entry): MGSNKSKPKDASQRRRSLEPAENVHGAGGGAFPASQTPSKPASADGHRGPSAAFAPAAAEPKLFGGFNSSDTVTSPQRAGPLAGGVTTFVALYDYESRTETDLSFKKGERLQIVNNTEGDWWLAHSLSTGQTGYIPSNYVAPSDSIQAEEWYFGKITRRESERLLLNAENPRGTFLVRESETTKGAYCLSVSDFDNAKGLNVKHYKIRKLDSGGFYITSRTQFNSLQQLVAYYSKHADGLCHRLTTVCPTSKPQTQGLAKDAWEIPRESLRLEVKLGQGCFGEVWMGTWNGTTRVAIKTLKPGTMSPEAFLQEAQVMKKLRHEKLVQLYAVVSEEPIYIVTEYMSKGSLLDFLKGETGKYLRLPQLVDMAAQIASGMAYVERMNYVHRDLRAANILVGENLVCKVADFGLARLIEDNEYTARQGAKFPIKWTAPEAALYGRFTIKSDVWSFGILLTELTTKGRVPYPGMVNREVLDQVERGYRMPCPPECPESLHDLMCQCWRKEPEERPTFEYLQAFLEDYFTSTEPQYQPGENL
Chain of VEGFR1 kinase (P17948 27-1338): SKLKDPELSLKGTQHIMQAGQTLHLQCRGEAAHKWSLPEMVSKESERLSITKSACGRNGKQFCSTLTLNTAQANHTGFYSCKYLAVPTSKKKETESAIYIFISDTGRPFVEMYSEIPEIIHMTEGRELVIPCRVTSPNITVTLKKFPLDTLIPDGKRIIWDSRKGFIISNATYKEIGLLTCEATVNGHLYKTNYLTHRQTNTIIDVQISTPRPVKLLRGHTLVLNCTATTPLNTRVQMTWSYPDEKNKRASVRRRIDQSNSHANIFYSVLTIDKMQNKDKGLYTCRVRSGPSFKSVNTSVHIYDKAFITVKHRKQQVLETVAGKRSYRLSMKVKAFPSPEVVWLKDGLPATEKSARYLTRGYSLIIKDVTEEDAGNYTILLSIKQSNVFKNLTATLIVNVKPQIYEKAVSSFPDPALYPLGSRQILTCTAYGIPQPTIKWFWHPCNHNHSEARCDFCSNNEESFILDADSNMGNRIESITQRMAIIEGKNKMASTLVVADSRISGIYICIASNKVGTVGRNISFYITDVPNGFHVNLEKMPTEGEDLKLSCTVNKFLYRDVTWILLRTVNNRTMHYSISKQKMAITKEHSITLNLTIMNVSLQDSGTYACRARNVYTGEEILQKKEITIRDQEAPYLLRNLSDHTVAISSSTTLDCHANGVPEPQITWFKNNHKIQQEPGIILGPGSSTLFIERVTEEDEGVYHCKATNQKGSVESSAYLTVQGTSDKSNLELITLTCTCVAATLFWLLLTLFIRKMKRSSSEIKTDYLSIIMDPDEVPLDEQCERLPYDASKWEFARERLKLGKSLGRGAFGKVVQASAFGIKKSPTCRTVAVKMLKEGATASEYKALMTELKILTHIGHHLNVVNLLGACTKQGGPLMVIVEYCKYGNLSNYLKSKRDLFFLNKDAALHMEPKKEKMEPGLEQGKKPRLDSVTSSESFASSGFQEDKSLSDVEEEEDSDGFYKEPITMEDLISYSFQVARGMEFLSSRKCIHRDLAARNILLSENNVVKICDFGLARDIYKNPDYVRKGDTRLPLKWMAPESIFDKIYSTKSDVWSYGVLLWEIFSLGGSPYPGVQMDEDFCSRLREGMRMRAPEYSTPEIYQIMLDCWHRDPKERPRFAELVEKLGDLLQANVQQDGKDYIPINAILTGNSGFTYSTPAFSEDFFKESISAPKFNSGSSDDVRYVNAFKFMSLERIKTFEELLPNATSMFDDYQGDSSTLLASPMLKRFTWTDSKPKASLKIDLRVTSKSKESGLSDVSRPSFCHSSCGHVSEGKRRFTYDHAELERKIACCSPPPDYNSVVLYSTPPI

CO[C@H]1/C=C\C=C(/C)C(=O)NC2=CC(=O)C(NCCN(C)C)=C(C[C@@H](C)C[C@H](OC)[C@H](O)[C@@H](C)/C=C(\C)[C@@H]1OC(N)=O)C2=O [17-DMAG, 17-dimethylaminoethylamino-17-demethoxy-geldanamycin]
IC50 [1, 6]: 29 ± 3 nM
IC50 or EC50 (nM) Nuclei count (A549-EGFRB cells; [7]): N.E.
HTS % inhibition at 10 μM Nuclei count (A549-EGFRB cells): 33%

CC(C)[C@H](CO)Nc1nc(Nc2cc(N)cc(Cl)c2)c2ncn(C(C)C)c2n1 [Aminopurvalanol A, aminopurvalanol A]
IC50 [1, 6]: 910 ± 400 nM
IC50 or EC50 (nM) Nuclei count (A549-EGFRB cells; [7]): N.E.^*
HTS % inhibition at 10 μM Nuclei count (A549-EGFRB cells): 40%

CCN(CC)CC1CCN(c2ncc3ncnc(Nc4ccc(F)c(Cl)c4)c3n2)CC1.Cl.Cl [BIBU 1361]
IC50 [1, 6]: 38 ± 7 nM
IC50 or EC50 (nM) Nuclei count (A549-EGFRB cells; [7]): N.E.
HTS % inhibition at 10 μM Nuclei count (A549-EGFRB cells): 3%
IC50 (recombinant EGFR kinase): 3 nM

C[C@H]1C[C@H]2[C@@H]3CCC4=CC(=O)C=C[C@]4(C)[C@@]3(Cl)[C@@H](O)C[C@]2(C)[C@@]1(O)C(=O)CO [Beclomethasone, beclomethasone]
EC50 ([1]; activators of granule formation, dose response up to 10 μM, ±standard deviation): 42 ± 7 nM
IC50 or EC50 (nM) Nuclei count (A549-EGFRB cells; [8]): N.E.
HTS % inhibition at 10 μM Nuclei count (A549-EGFRB cells): 16%
Luminescence ADP kinase assay IC50 VEGFR1 (VEGFR1 kinase): no inhibitory effects
Luminescence ADP kinase assay IC50 SRC (SRC kinase): no inhibitory effects
Luminescence ADP kinase assay IC50 EGFR (EGFR kinase): no inhibitory effects
Luminescence ADP kinase assay IC50 ABL (ABL kinase): no inhibitory effects

CCc1cc(-c2n[nH]c(C)c2-c2ccc3c(c2)OCCO3)c(O)cc1O [CCT 018159]
Inhibition of granule formation in dose response ([1]; at 5 and 10 μM): partial inhibition

CC[C@@]1(O)C(=O)OCc2c1cc1n(c2=O)Cc2cc3ccccc3nc2-1 [Camptothecin, camptothecin]
IC50 [2]: 390 ± 50 nM
inhibition at 10 µM [1]: 81%
IC50 [1]: 720 ± 100 nM
IC50 or EC50 (nM) Nuclei count (A549-EGFRB cells; [7]): N.E.^*
inhibition at 10 µM (A549-EGFRB cells): 40%
IC50 [3]: 0.035 ± 0.05 µM
IC50 (VEGFR1 kinase): > 10 µM
IC50 (SRC kinase): > 10 µM
IC50 (EGFR kinase): > 10 µM
IC50 (ABL kinase): > 10 µM
IC50 [4]: 0.017 ± 0.005 µM
IC50 [5]: 290 ± 40 nM

COC(=O)/C=C/c1cc(O)ccc1O [Erbstatin analog]
Alamar Blue viability assay IC50 H3255 [2]: only partial inhibition
IC50 or EC50 (nM) Granule count [1, 6]: N.E.
IC50 or EC50 (nM) Nuclei count (A549-EGFRB cells; [7]): N.E.^*
HTS % inhibition at 10 μM Nuclei count (A549-EGFRB cells): 2%
Alamar Blue viability assay IC50 A549 [3]: only partial inhibition
Luminescence ADP kinase assay IC50 VEGFR1 (VEGFR1 kinase): inactive
Luminescence ADP kinase assay IC50 SRC (SRC kinase): inactive
Luminescence ADP kinase assay IC50 EGFR (EGFR kinase): inactive
Luminescence ADP kinase assay IC50 ABL (ABL kinase): inactive
Alamar Blue viability assay IC50 H2030 [4]: only partial inhibition
Alamar Blue viability assay IC50 HCC4011 [5]: only partial inhibition

C#Cc1cccc(Nc2ncnc3cc(OCCOC)c(OCCOC)cc23)c1 [Erlotinib, erlotinib]
IC50 or EC50 (nM) Nuclei count (A549-EGFRB cells): N.E.
inhibition at 10 µM (A549-EGFRB cells): 36%

CC1(C)O[C@@H]2C[C@H]3[C@@H]4C[C@H](F)C5=CC(=O)CC[C@]5(C)[C@H]4[C@@H](O)C[C@]3(C)[C@]2(C(=O)CO)O1 [Flurandrenolide, flurandrenolide]
Alamar Blue viability assay IC50 H3255 [2]: inactive
IC50 [2]: > 10000 nM
inhibition at 10 µM [1]: -165%
EC50 [1]: 23 ± 20 nM
IC50 or EC50 (nM) Nuclei count (A549-EGFRB cells; [8]): N.E.
inhibition at 10 µM (A549-EGFRB cells): 7%
Alamar Blue viability assay IC50 A549 [3]: inactive
IC50 [3]: > 10 µM
IC50 (VEGFR1 kinase): > 10 µM
Luminescence ADP kinase assay IC50 VEGFR1 (VEGFR1 kinase): no inhibitory effects
IC50 (SRC kinase): > 10 µM
Luminescence ADP kinase assay IC50 SRC (SRC kinase): no inhibitory effects
IC50 (EGFR kinase): > 10 µM
Luminescence ADP kinase assay IC50 EGFR (EGFR kinase): no inhibitory effects
Alamar Blue viability assay IC50 H2030 [4]: inactive
IC50 [4]: > 10 µM
Alamar Blue viability assay IC50 HCC4011 [5]: inactive
IC50 [5]: > 10000 nM

CN(C)c1cc2c(Nc3ccc4c(cnn4Cc4ccccc4)c3)ncnc2cn1 [GW 2974]
IC50 [1, 6]: 1300 nM
IC50 or EC50 (nM) Nuclei count (A549-EGFRB cells; [7]): N.E.
HTS % inhibition at 10 μM Nuclei count (A549-EGFRB cells): 18%

CS(=O)(=O)CCNCc1nc(-c2ccc3ncnc(Nc4ccc(OCc5cccc(F)c5)c(Cl)c4)c3c2)cs1 [GW 583340]
IC50 [2]: 960 ± 60 nM
inhibition at 10 µM [1]: 94%
IC50 [1]: 2000 nM
IC50 or EC50 (nM) Nuclei count (A549-EGFRB cells; [7]): N.E.
inhibition at 10 µM (A549-EGFRB cells): 26%
IC50 [3]: > 10 µM
IC50 (VEGFR1 kinase): > 10 µM
IC50 (SRC kinase): > 10 µM
IC50 (EGFR kinase): 1.3 ± 0.1 µM
IC50 (ABL kinase): > 10 µM
IC50 [4]: > 10 µM
IC50 [5]: 2000 ± 200 nM

CS(=O)(=O)CCNCc1ccc(-c2ccc3ncnc(Nc4ccc(OCc5cccc(F)c5)c(Cl)c4)c3c2)o1 [Lapatinib, lapatinib]
IC50 [2]: 1200 ± 100 nM
inhibition at 10 µM [1]: 91%
IC50 [1]: 590 ± 30 nM
IC50 or EC50 (nM) Nuclei count (A549-EGFRB cells): N.E.
inhibition at 10 µM (A549-EGFRB cells): 0%
IC50 [3]: > 10 µM
IC50 [4]: > 10 µM
IC50 [5]: 1500 ± 100 nM

COc1cc2ncnc(Nc3cccc(Br)c3)c2cc1OC [PD 153035]
IC50 [2]: 72 ± 12 nM
inhibition at 10 µM [1]: 97%
IC50 [1]: 91 ± 20 nM
IC50 or EC50 (nM) Nuclei count (A549-EGFRB cells): N.E.
inhibition at 10 µM (A549-EGFRB cells): 12%
IC50 [3]: > 10 µM
IC50 (VEGFR1 kinase): > 10 µM
IC50 (SRC kinase): > 10 µM
IC50 [4]: > 10 µM
IC50 [5]: 48 ± 12 nM

CO[C@@H]1[C@H](N(C)C(=O)c2ccccc2)C[C@H]2O[C@]1(C)n1c3ccccc3c3c4c(c5c6ccccc6n2c5c31)C(=O)NC4 [PKC 412]
IC50 [1]: 1300 nM

COc1cc2ncnc(Nc3cccc(Cl)c3)c2cc1OC [Tyrphostin AG 1478]
IC50 [2]: 49 ± 1 nM
inhibition at 10 µM [1]: 94%
IC50 [1]: 65 ± 8 nM
IC50 or EC50 (nM) Nuclei count (A549-EGFRB cells; [7]): N.E.
inhibition at 10 µM (A549-EGFRB cells): 12%
IC50 [3]: > 10 µM
IC50 (VEGFR1 kinase): > 10 µM
IC50 (SRC kinase): 2.6 ± 1.3 µM
IC50 (ABL kinase): 2 ± 0.6 µM
IC50 [4]: > 10 µM
IC50 [5]: 33 ± 7 nM

COc1cc2ncnc(Nc3ccc(Cl)cc3F)c2cc1OC [ZM-306416]
IC50 [1, 6]: 670 ± 200 nM
IC50 or EC50 (nM) Nuclei count (A549-EGFRB cells; [7]): N.E.
HTS % inhibition at 10 μM Nuclei count (A549-EGFRB cells): 21%
Alamar Blue viability assay IC50 A549 [3]: inactive
Alamar Blue viability assay IC50 H2030 [4]: inactive
